Here are results for five compounds from US11873521B2, “Steviol glycoside and production method therefor, and sweetener composition containing same” (SUNTORY HOLDINGS LIMITED, priority 2017, dated 2024).

The structures appear in SMILES notation. “Also recorded” adds a separate entry of the source.

For data set [1] the following is noted: samples adjusted to final Brix of 2 in terms of sucrose; cited from earlier work.
Data set [2] in a line: Evaluation of flavors of novel steviol glycosides in powder forms. Format: in vivo. The following applies: only β-form. How it is done: Flavors of Novel steviol glycosides 1 and 2 in powder forms were evaluated. Specifically, Compounds 15 (corresponding to Novel steviol glycoside 1) and 17 (corresponding to Novel steviol glycoside 2) obtained by chemical syntheses were subjected to high performance liquid chromatography (HPLC) to isolate only the β-form, which was made into a powder form and subjected to flavor evaluation. Panelists trained about sensory attributes of sweeteners members: Suntory Beverage and Food Ltd.) evaluated.

The conditions of data set [3]: background art; cited from earlier work.
A further data set can be described thus: Solubility in water. The format is physicochemical.

Consider `C=C1C[C@@]23CC[C@H]4[C@@](C)(CCC[C@@]4(C)C(=O)O[C@@H]4O[C@H](CO)[C@@H](O)[C@H](O)[C@H]4O[C@@H]4O[C@H](CO)[C@@H](O)[C@H](O)[C@H]4O)[C@@H]2CC[C@]1(O[C@@H]1O[C@H](CO)[C@@H](O)[C@H](O[C@@H]2O[C@H](CO)[C@@H](O)[C@H](O)[C@H]2O)[C@H]1O[C@@H]1O[C@H](CO)[C@@H](O)[C@H](O)[C@H]1O)C3` [Reb.D, rebaudioside D], for which the “sweetness level assumed for preparing beverage samples” value in data set [1] is 250.

In the case of `C=C1C[C@@]23CCC4[C@](C)(C(=O)O[C@@H]5OC(CO)[C@@H](O)[C@H](O[C@@H]6OC(CO)[C@@H](O)[C@H](O)C6O)C5O[C@@H]5OC(C)[C@H](O)[C@H](O)C5O)CCC[C@@]4(C)[C@@H]2CCC1(O[C@@H]1OC(CO)[C@@H](O)[C@H](O[C@@H]2OC(CO)[C@@H](O)[C@H](O)C2O)C1O[C@@H]1OC(C)[C@H](O)[C@H](O)C1O)C3` (some centres unmarked) [Compound 17], the “undesirable flavor such as bitterness” value in data set [2] is reported as “less undesirable flavor such as bitterness”. Further, the Presence of sweetness result in data set [2] (listed as Novel steviol glycoside 2) was “had sweetness; also recorded: Present”. Moreover, the Flavor characteristics entry in data set [2] (listed as Novel steviol glycoside 2, bitterness) is “No bitterness”; in data set [2] (listed as Novel steviol glycoside 2, overall flavor) it was “Flavor resembled the mixture”.

Consider `C=C1C[C@@]23CC[C@H]4[C@@](C)(CCC[C@@]4(C)C(=O)O[C@@H]4O[C@H](CO)[C@@H](O)[C@H](O)[C@H]4O)[C@@H]2CC[C@]1(O[C@@H]1O[C@H](CO)[C@@H](O)[C@H](O[C@@H]2O[C@H](CO)[C@@H](O)[C@H](O)[C@H]2O)[C@H]1O[C@@H]1O[C@H](CO)[C@@H](O)[C@H](O)[C@H]1O)C3` [Reb.A, rebaudioside A], for which the “sweetness level assumed for preparing beverage samples” value in data set [1] is on record as 300. Moreover, the “sweetness relative to sugar” value in data set [3] is 350-450 times the sweetness of sugar.

Consider `C=C1C[C@@]23CC[C@H]4[C@@](C)(CCC[C@@]4(C)C(=O)O[C@@H]4O[C@H](CO)[C@@H](O)[C@H](O)[C@H]4O)[C@@H]2CC[C@]1(O[C@@H]1O[C@H](CO)[C@@H](O)[C@H](O)[C@H]1O[C@@H]1O[C@H](CO)[C@@H](O)[C@H](O)[C@H]1O)C3` [Stevioside], for which the “sweetness relative to sugar” value in data set [3] is listed as 250-300 times the sweetness of sugar.

For `C=C1C[C@@]23CCC4[C@](C)(C(=O)O[C@@H]5OC(CO)[C@@H](O)[C@H](O)C5O[C@@H]5OC(C)[C@H](O)[C@H](O)C5O)CCC[C@@]4(C)[C@@H]2CCC1(O[C@@H]1OC(CO)[C@@H](O)[C@H](O[C@@H]2OC(CO)[C@@H](O)[C@H](O)C2O)C1O[C@@H]1OC(C)[C@H](O)[C@H](O)C1O)C3` (some centres unmarked) [Compound 15], in the data set “Solubility in water”, the solubility in water result is recorded as “did not dissolve in water sufficiently”. Further, in data set [2], the “undesirable flavor such as bitterness” value is “less undesirable flavor such as bitterness”. Further, the Presence of sweetness result in data set [2] (listed as Novel steviol glycoside 1) is on record as “had sweetness; also recorded: Present”.
